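Cells were grown in 96-well plates and exposed to each compound for 48 hours at five concentrations; endpoints were interpolated linearly between bracketing concentrations, or set to the highest concentration if not reached. GI50 marks 50% less growth.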 Activity calls are given as the source filed them. Cut-off read from the data, not from the text of the source: active = GI50 up to about 1.1 µM and inactive = higher.
What was measured:
Test in all cases: NCI-60 cell line screen, 48 h
PC-3 = test system: PC-3
MDA-N = test system: MDA-N
MCF7 = test system: MCF7
HT-29 = test system: HT-29
SK-MEL-5 = test system: SK-MEL-5
SF-268 = test system: SF-268
KM12 = test system: KM12
SR = test system: SR
NCI-H522 = test system: NCI-H522
U-251 = test system: U-251
UACC-62 = test system: UACC-62
UO-31 = test system: UO-31
OVCAR-4 = test system: OVCAR-4
UACC-257 = test system: UACC-257
SK-MEL-2 = test system: SK-MEL-2
Hs-578T = test system: Hs-578T
Malme-3M = test system: Malme-3M
OVCAR-5 = test system: OVCAR-5
SF-539 = test system: SF-539
HL-60 = test system: HL-60

Structure (SMILES)	GI50 (PC-3)	GI50 (MDA-N)	GI50 (MCF7)	GI50 (HT-29)	GI50 (SK-MEL-5)	GI50 (SF-268)	GI50 (KM12)	GI50 (SR)	GI50 (NCI-H522)	GI50 (U-251)	GI50 (UACC-62)	GI50 (UO-31)	GI50 (OVCAR-4)	GI50 (UACC-257)	GI50 (SK-MEL-2)	GI50 (Hs-578T)	GI50 (Malme-3M)	GI50 (OVCAR-5)	GI50 (SF-539)	GI50 (HL-60)
CC(C)[S+]1C2=C(CC(C)(C)CC2=O)[N-]c2ccccc21 (stereo not given)	> 100 µM (inactive)	> 100 µM (inactive)	> 100 µM (inactive)	> 100 µM (inactive)	> 100 µM (inactive)	> 100 µM (inactive)	> 100 µM (inactive)	> 100 µM (inactive)	> 100 µM (inactive)	> 100 µM (inactive)	> 100 µM (inactive)	> 100 µM (inactive)	> 100 µM (inactive)	> 100 µM (inactive)	> 100 µM (inactive)	> 100 µM (inactive)	> 100 µM (inactive)	> 100 µM (inactive)		
CCN(CC)CCn1c(=O)c2c(C)c3oc4ccccc4oc3c(C)c2c1=O	> 100 µM (inactive)	> 100 µM (inactive)	> 100 µM (inactive)	> 100 µM (inactive)	> 100 µM (inactive)	> 100 µM (inactive)	> 100 µM (inactive)		> 100 µM (inactive)	> 100 µM (inactive)	> 100 µM (inactive)		> 100 µM (inactive)	> 100 µM (inactive)	> 100 µM (inactive)	> 100 µM (inactive)	> 100 µM (inactive)	> 100 µM (inactive)	> 100 µM (inactive)	> 100 µM (inactive)
CN(C)CCNc1ccc(NCC[N+](C)(C)Cc2ccc([N+](=O)[O-])cc2)c2c1C(=O)c1ccccc1C2=O	13.6 µM (inactive)	18.3 µM (inactive)	11.9 µM (inactive)	16.6 µM (inactive)	12.2 µM (inactive)	11.9 µM (inactive)	13.8 µM (inactive)	6.15 µM (inactive)	8.73 µM (inactive)	19.4 µM (inactive)	18.5 µM (inactive)	9.51 µM (inactive)		8.41 µM (inactive)	> 25 µM (inactive)	19.3 µM (inactive)	22.6 µM (inactive)	> 25 µM (inactive)		4.28 µM (inactive)
COc1ccc(-c2cc(-c3ccccc3)[nH]c(=S)c2C#N)cc1	19.9 µM (inactive)	31.1 µM (inactive)	30.7 µM (inactive)	36.1 µM (inactive)	16 µM (inactive)	38.2 µM (inactive)	45.4 µM (inactive)	32.6 µM (inactive)	25.5 µM (inactive)	25.8 µM (inactive)	19 µM (inactive)	20.6 µM (inactive)	38.6 µM (inactive)			39.2 µM (inactive)	32.4 µM (inactive)	62.1 µM (inactive)		46.8 µM (inactive)
C/C(=N\NC(=O)CC#N)C(CN1CCCCC1)C(c1ccccc1)c1c(O)c2ccccc2oc1=O (stereo not given)	58.3 µM (inactive)	49.8 µM (inactive)	17.3 µM (inactive)	46.8 µM (inactive)	51.2 µM (inactive)	> 100 µM (inactive)	39.5 µM (inactive)		58.2 µM (inactive)	58.6 µM (inactive)	45.4 µM (inactive)	33.9 µM (inactive)	52.1 µM (inactive)	37.2 µM (inactive)	35.7 µM (inactive)	50.6 µM (inactive)	41 µM (inactive)	> 100 µM (inactive)	52.6 µM (inactive)	27.2 µM (inactive)
O=c1[nH]c(=S)[nH]c2c(C3OC(CO)C(O)C3O)nsc12 (stereo not given)	> 100 µM (inactive)	> 100 µM (inactive)	> 100 µM (inactive)	> 100 µM (inactive)	> 100 µM (inactive)	> 100 µM (inactive)		> 10 µM (inactive)		> 100 µM (inactive)	> 100 µM (inactive)		> 100 µM (inactive)	> 100 µM (inactive)	> 100 µM (inactive)	> 100 µM (inactive)	> 100 µM (inactive)	> 100 µM (inactive)	> 100 µM (inactive)	> 100 µM (inactive)
O=C(NNC(=S)Nc1ccccc1)c1cc(-c2ccccc2)nc2ccccc12	18.6 µM (inactive)	18.2 µM (inactive)	21.4 µM (inactive)	28.6 µM (inactive)	13.2 µM (inactive)	22.9 µM (inactive)	20.7 µM (inactive)	13.6 µM (inactive)	18.1 µM (inactive)	12.2 µM (inactive)	15.6 µM (inactive)	15.2 µM (inactive)	17.3 µM (inactive)	19.1 µM (inactive)	11.1 µM (inactive)	25.1 µM (inactive)	23.3 µM (inactive)	18.1 µM (inactive)	21.4 µM (inactive)	
CN1C(=O)c2c(c3c4ccccc4n(C4OC(CO)C(O)C(O)C4O)c3c3[nH]c4ccccc4c23)C1=O (stereo not given)	1.92 µM (inactive)	2.14 µM (inactive)	5.51 µM (inactive)	3.13 µM (inactive)	1.36 µM (inactive)	0.541 µM (active)	3.85 µM (inactive)	0.164 µM (active)	0.321 µM (active)	0.681 µM (active)	1.46 µM (inactive)	2.57 µM (inactive)	2.37 µM (inactive)	2.49 µM (inactive)	2.48 µM (inactive)	4.45 µM (inactive)	0.194 µM (active)	3.22 µM (inactive)	1.36 µM (inactive)	
